From patent publication US8710092B2, “Substituted indolo 4,3 FG quinolines useful for treating migraine” (Map Pharmaceuticals, Inc., priority 2009, dated 2014) come the findings set out here.

Data set [1] has as its target T1, 5-HT2B receptor (Homo sapiens, UniProt P41595).
T1 construct: Millipore, Inc. (GPCR Profiler Service Laboratory, St. Charles, Mo.)
Description: FLIPR assay, agonist selectivity at the 5-HT2B receptor. Format: cell-based. The procedure: A FLIPR assay was conducted to monitor agonist selectivity for 1-methyl-dihydroergotamine against the 5-HT2B receptor. The assay was completed with an eight point, 4 fold serial dilution series starting with 10 μM concentration to obtain full dose response curve. Percentage activation values were determined for 1-methyl-dihydroergotamine on the 5-HT2B receptor. Agonist selectivity was determined upon initial addition of for 1-methyl-dihydroergotamine followed by a 5 minute incubation at 25° C. Following compound incubation, reference agonists were added at EC80. Agonist percentage activation determinations were obtained by assaying 1-methyl-dihydroergotamine and referencing the Emax control for the 5-HT2B receptor. The assay was performed by GPCR Profiler™ Service Laboratory, St. Charles, Mo., Millipore, Inc.

The target of data set [2] is T2, 5-HT2c receptor (Homo sapiens, UniProt P28335).
T2 sequence (P28335 33-458): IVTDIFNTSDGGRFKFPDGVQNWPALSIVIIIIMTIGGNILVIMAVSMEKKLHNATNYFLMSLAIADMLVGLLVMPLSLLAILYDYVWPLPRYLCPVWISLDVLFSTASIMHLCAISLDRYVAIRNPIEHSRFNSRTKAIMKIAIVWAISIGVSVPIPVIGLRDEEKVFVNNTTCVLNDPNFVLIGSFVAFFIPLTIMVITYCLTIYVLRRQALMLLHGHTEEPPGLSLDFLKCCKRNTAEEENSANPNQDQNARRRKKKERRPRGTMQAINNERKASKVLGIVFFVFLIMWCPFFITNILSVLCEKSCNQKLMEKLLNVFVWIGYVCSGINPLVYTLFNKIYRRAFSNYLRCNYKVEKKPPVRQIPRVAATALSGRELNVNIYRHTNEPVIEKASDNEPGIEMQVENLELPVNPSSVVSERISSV
The experiment in a line: FLIPR agonist assay at the 5-HT2c receptor (analogous to Example 2). It counts as cell-based. The note with it: for agonist activity at the 5-HT2c receptor: FLIPR.

Data set [3] concerns the target T2, 5-HT2c receptor. Description: FLIPR antagonist assay at the 5-HT2c receptor (analogous to Example 3). Format: cell-based.
Data set [4] addresses 5-HT7 receptor (Homo sapiens, UniProt P34969). The experiment in a line: cAMP HTRF assay, antagonist activity at 5-HT7 (analogous to Example 6). Format: cell-based. The note with it: percent of control response to 300 nM serotonin, FIG. 4. The procedure:
(§1) A cell based assay (cAMP modulation with HTRF detection) was conducted to monitor agonist activity of test compounds at the 5-HT1A receptor, summarized in FIG. 3. Test compounds were serially diluted to provide a wide concentration range sufficient to calculate EC50. The cAMP concentration was determined and results are expressed as a percent of the control response to 100 nM 8-OH-DPAT (control agonist).
The assay was performed analogously to the assay described in Example 6. Antagonist activity of test compounds at the 5-HT7 receptor, using serotonin as a control reference agonist, was measured. Test compounds were serially diluted to provide a wide concentration range sufficient to calculate IC50. The results are expressed as a percent of the control response to 300 nM serotonin.
Background: TR-FRET usually uses a lanthanide donor and a delayed reading to cut background.

Data set [5] concerns the target T1, 5-HT2B receptor. Description: FLIPR assay, antagonist selectivity at the 5-HT2B receptor. The settings on record: FIG. 2. It counts as cell-based. The procedure:
A FLIPR assay was conducted to monitor antagonist selectivity for 1-methyl-dihydroergotamine against the 5-HT2B receptor. The assay was completed with an eight point, 4 fold serial dilution series starting with 10 μM concentration to obtain full dose response curve. Percentage inhibition values were determined for 1-methyl-dihydroergotamine on the 5-HT2B receptor. Antagonist percentage inhibition determinations were obtained by assaying 1-methyl-dihydroergotamine and referencing the Emax control for the 5-HT2B receptor. The assay above was performed by GPCR Profiler™ Service Laboratory, St. Charles, Mo., Millipore, Inc.

The target of data set [6] is 5-HT1B receptor (Homo sapiens, UniProt P28222). The experiment in a line: Membrane based GTPγS assay, agonist activity at 5-HT1B. It counts as biochemical. The settings on record: 5-CT reference agonist, FIG. 5. The procedure:
A membrane based GTPγS assay was conducted to monitor agonist activity of test compounds at the 5-HT1B receptor, summarized in FIG. 5. Test compounds were serially diluted to provide a wide concentration range sufficient to calculate EC50. The results are expressed as a percent of activation. 5-CT was used as a reference agonist.

The target of data set [7] is 5-HT1D receptor (Homo sapiens, UniProt P28221). Description: Membrane based GTPγS assay, agonist activity at 5-HT1D. Format: biochemical. The settings on record: 5-CT reference agonist, FIG. 6.
Sequence of 5-HT1D receptor (P28221 whole entry): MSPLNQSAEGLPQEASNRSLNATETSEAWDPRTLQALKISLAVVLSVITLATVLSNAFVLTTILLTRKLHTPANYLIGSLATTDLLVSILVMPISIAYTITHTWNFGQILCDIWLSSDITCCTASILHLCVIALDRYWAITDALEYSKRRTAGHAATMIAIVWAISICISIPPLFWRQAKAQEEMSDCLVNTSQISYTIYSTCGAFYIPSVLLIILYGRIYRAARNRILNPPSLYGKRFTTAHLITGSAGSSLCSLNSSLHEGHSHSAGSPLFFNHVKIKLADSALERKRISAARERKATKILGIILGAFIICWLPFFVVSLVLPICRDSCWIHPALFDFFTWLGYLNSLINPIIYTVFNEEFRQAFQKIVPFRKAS
Data set [8] has as its target T3, 5-HT1A receptor (Homo sapiens, UniProt P08908).
T3 sequence (P08908 1-422): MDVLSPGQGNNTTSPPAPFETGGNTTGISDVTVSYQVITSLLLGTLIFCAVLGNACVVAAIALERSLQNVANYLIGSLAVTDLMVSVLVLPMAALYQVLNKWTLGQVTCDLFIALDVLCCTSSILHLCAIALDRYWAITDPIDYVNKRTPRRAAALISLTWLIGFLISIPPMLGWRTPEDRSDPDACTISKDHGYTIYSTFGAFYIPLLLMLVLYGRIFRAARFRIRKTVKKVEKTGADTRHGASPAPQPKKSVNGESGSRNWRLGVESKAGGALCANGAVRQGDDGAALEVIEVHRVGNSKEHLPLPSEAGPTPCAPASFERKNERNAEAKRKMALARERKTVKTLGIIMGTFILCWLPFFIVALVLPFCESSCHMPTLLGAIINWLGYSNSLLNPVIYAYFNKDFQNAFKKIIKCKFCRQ
Description: Cell based assay (cAMP modulation with HTRF detection), agonist activity at 5-HT1A. The settings on record: percent of control response to 100 nM 8-OH-DPAT, FIG. 3. On the procedure:
as §1

Where [9] appears, read: FLIPR, FIG. 1, read-out: EC50, agonism of the 5-HT2B receptor.

Each structure is given as a SMILES string. Like-named read-outs stand apart in the source and are kept apart here.

T1 sequence (P41595 whole entry): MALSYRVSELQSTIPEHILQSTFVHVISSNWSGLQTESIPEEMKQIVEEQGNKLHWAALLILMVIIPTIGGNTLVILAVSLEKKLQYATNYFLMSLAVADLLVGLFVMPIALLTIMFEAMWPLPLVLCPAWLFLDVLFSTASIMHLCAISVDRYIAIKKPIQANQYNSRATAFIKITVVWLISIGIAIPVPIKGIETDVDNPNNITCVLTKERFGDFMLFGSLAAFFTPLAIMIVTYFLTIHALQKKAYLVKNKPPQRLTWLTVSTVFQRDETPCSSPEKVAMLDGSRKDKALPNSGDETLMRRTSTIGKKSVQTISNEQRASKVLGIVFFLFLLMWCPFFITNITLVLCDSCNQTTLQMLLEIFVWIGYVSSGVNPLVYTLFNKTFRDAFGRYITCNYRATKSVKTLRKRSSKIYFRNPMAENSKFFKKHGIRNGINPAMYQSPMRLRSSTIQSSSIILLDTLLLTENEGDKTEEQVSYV
Sequence of 5-HT7 receptor (P34969 whole entry): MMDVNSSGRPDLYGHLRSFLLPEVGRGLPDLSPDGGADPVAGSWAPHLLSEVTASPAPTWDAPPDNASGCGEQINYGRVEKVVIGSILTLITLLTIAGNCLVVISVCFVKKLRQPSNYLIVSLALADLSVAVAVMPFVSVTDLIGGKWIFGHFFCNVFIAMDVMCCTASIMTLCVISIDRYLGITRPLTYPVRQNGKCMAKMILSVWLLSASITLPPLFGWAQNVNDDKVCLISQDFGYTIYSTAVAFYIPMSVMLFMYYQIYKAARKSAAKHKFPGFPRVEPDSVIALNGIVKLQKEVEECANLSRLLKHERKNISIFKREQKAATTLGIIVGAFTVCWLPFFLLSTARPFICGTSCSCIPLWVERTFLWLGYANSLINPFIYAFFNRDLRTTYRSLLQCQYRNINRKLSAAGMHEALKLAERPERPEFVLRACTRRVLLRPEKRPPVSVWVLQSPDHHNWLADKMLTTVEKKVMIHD
Sequence of 5-HT1B receptor (P28222 whole entry): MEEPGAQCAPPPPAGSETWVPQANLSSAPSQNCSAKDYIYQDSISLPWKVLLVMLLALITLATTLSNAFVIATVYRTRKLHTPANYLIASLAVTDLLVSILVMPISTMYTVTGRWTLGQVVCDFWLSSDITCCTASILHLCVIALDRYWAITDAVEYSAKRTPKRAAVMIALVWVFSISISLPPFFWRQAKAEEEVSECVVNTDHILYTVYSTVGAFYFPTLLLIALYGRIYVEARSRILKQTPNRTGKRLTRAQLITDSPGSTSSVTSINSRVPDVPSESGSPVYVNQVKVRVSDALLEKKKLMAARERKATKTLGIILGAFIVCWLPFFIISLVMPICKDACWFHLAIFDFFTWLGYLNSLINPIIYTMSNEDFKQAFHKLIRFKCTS

A word on the EC50: it is the concentration needed to bring the measured effect to its halfway point. With `CCCN1C[C@H](CSC)C[C@@H]2c3cccc4[nH]cc(c34)C[C@H]21` [pergolide], the EC50 in data set [1] (setting [9]) was 0.01 µM. In [2], the “agonist activity at the 5-HT2c receptor” value is recorded as “no agonist activity”.
A word on the IC50: it is the midpoint of a concentration-inhibition curve. Low values mean greater potency, high ones weaker potency. `CN1C[C@H](C(=O)N[C@]2(C)O[C@@]3(O)[C@@H]4CCCN4C(=O)[C@H](Cc4ccccc4)N3C2=O)C[C@@H]2c3cccc4[nH]cc(c34)C[C@H]21` [dihydroergotamine] showed an IC50 in data set [3] of 0.28 µM. Also, the midpoint of the response in data set [1], the EC50, lay at 0.26 µM. Also, the “agonist activity at the 5-HT2c receptor” value in [2] is recorded as “no agonist activity”.
Turning to `CC(N)Cc1c[nH]c2ccc(O)cc12` (stereo not drawn) [alpha-Me-5HT], the EC50 in [1] (setting [9]) was found to be 0.0002 µM.
As for `CN1C[C@H](C(=O)N[C@]2(C)O[C@@]3(O)[C@@H]4CCCN4C(=O)[C@H](Cc4ccccc4)N3C2=O)C=C2c3cccc4[nH]cc(c34)C[C@H]21` [ergotamine], the EC50 in [1] was found to be 0.16 µM; in [2] it was 5 µM.
Usually melting point stands for the temperature of the solid-liquid transition. The compound `CN1CC(C(=O)N[C@]2(C)O[C@@]3(O)C4CCCN4C(=O)[C@H](Cc4ccccc4)N3C2=O)CC2c3cccc4c3c(cn4C)CC21` (stereo partly shown) [MAP0057, 1-Methyl-Dihydroergotamine] returned a melting point of 216 to 218 °C. The IC50 in [4] worked out at 0.069 µM. Moreover, in data set [3], it took 0.46 µM to reach half-maximal inhibition (IC50). Besides, the IC50 in data set [5] was determined as 0.016 µM. In data set [1] (FLIPR, dilution series starting with 10 μM, FIG. 1), the “agonist activity at the 5-HT2B receptor” value was “no agonist activity”. This compound had an EC50 in data set [6] of 0.00102 µM. The “agonist activity at the 5-HT2c receptor” value in data set [2] is on record as “no agonist activity”. A half-maximal effect in [7] (EC50) was put at 0.00045 µM. In data set [8], this compound had an EC50 of 0.016 µM.
Turning to `CNS(=O)(=O)Cc1ccc2[nH]cc(CCN(C)C)c2c1` [sumatriptan], the “antagonist activity at the 5-HT2c receptor” value in data set [3] (FLIPR) is “no antagonist activity”. Also, the “agonist activity at the 5-HT2c receptor” value in data set [2] was “no agonist activity”.
